From the supplement of paper PMC3621838
± gives the standard deviation of the averaged measurements.

System: HEK293 NF-kB-luciferase reporter cells
Assay: NF-kB luciferase reporter activity, robust Z-score vs plate median (robust Z-score (log luminescence)); higher = stronger NF-kB reporter activation
Conditions: TNF treatment time 8.5 h, transfection time 72 h
Protocol: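 Primary screen of an Ambion Pre-miR miRNA mimic library (miRBase v8.0, 1.6 pmol/well, 384-well, duplicate) reverse-transfected into HEK293 cells stably expressing a 5x NF-kB firefly luciferase reporter. After 72 h the cells were treated with vehicle or TNF (40 ng/mL) for 8.5 h and luminescence was read (BriteLite). Raw luminescence was log-transformed and converted to a robust Z-score per plate: (x - plate median)/plate MAD. Sequence given is the mature miRNA strand of the double-stranded mimic.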

| Sequence | NF-kB luciferase reporter activity (TNF 0 ng/mL) | NF-kB luciferase reporter activity (TNF 40 ng/mL) |
| --- | --- | --- |
| CCUCUGGGCCCUUCCUCCAG | 2.88 ± 0.89 | -0.776 ± 0.1 |
| CGAAUGUUGCUCGGUGAACCCCU | -1.7 ± 0.2 | -2.17 ± 0.28 |
| CGCAUCCCCUAGGGCAUUGGUGU | -0.887 ± 0.054 | -0.479 ± 0.1 |
| CGGGUGGAUCACGAUGCAAUUU | 0.731 ± 0.46 | -2.0207 ± 0.0002 |
| CUACAAAGGGAAGCACUUUCUC | -1.11 ± 0.64 | -1.63 ± 0.19 |
| CUCCAGAGGGAAGUACUUUCU | -1.38 ± 1.7 | -1.33 ± 0.13 |
| CUCCAGAGGGAUGCACUUUCU | -1.38 ± 0.64 | -1.09 ± 0.051 |
| CUCCUGACUCCAGGUCCUGUGU | 1.44 ± 0.61 | 1.21 ± 0.14 |
| CUCUAGAGGGAAGCACUUUCU | 0.466 ± 0.17 | 0.664 ± 0.074 |
| CUCUAGAGGGAAGCACUUUCUCU | 1.17 ± 0.88 | 0.571 ± 0.12 |
| CUCUAGAGGGAAGCGCUUUCUGUU | 1.69 ± 0.18 | 0.579 ± 0.019 |
| CUCUUGAGGGAAGCACUUUCUGUU | 1.14 ± 0.36 | 0.555 ± 0.059 |
| CUGACCUAUGAAUUGACAGCC | -0.152 ± 0.091 | -0.0202 ± 0.12 |
| CUGCAAAGGGAAGCCCUUUCU | -0.197 ± 1 | -0.78 ± 0.054 |
| CUGGACUUAGGGUCAGAAGGCC | 0.0764 ± 0.11 | 0.411 ± 0.022 |
| CUGGACUUGGAGUCAGAAGGCC | -1.02 ± 0.24 | -0.191 ± 0.11 |
| CUGGAUGGCUCCUCCAUGUCU | 0.547 ± 0.21 | -0.772 ± 0.095 |
| CUGGCCCUCUCUGCCCUUCCGU | 0.704 ± 0.42 | -0.112 ± 0.19 |
| CUGUGCGUGUGACAGCGGCUGA | 0.091 ± 0.43 | -2.3857 ± 0.00042 |
| CUUUCAGUCGGAUGUUUACAGC | -0.449 ± 0.15 | 1 ± 0.025 |
| CUUUUUGCGGUCUGGGCUUGC | 0.334 ± 0.36 | -0.65 ± 0.076 |
| GAAGGCGCUUCCCUUUAGAGC | -0.845 ± 0.78 | -0.47 ± 0.02 |

| Sequence | NF-kB luciferase reporter activity (TNF 0 ng/mL) | NF-kB luciferase reporter activity (TNF 40 ng/mL) |
| --- | --- | --- |
| GAAGGCGCUUCCCUUUGGAGU | -0.702 ± 0.69 | -0.567 ± 0.046 |
| GAAGUGCUUCGAUUUUGGGGUGU | -1.7 ± 0.2 | -0.363 ± 0.1 |
| GAAGUUGUUCGUGGUGGAUUCG | -0.0557 ± 0.33 | -0.602 ± 0.087 |
| GAGGUUGUCCGUGGUGAGUUCG | -0.468 ± 0.88 | -2.08 ± 0.48 |
| GAGUGCCUUCUUUUGGAGCGU | -0.314 ± 0.76 | -0.822 ± 0.14 |
| GCAAAGCACACGGCCUGCAGAGA | -0.287 ± 0.28 | -0.658 ± 0.027 |
| GCACAUUACACGGUCGACCUCU | -0.263 ± 0.11 | 1.28 ± 0.042 |
| GCCCCUGGGCCUAUCCUAGAA | 1.22 ± 0.89 | 0.489 ± 0.046 |
| GCCUGCUGGGGUGGAACCUGG | -0.469 ± 0.36 | 0.451 ± 0.051 |
| GCUGCGCUUGGAUUUCGUCCCC | -0.0918 ± 0.13 | 0.328 ± 0.013 |
| GGAGAAAUUAUCCUUGGUGUGU | 0.189 ± 0.13 | 0.256 ± 0.16 |
| GGUAGAUUCUCCUUCUAUGAG | -0.702 ± 0.69 | -1.25 ± 0.063 |
| GUCAACACUUGCUGGUUUCCUC | -0.0513 ± 0.073 | -0.799 ± 0.029 |
| GUCAUACACGGCUCUCCUCUCU | 0.54 ± 0.4 | -1.19 ± 0.14 |
| GUGAAAUGUUUAGGACCACUAG | 0.966 ± 1.4 | 0.9884 ± 0.0031 |
| GUGCCGCCAUCUUUUGAGUGU | 0.919 ± 0.46 | -1.45 ± 0.12 |
| GUGCCUACUGAGCUGAUAUCAGU | -0.791 ± 0.86 | 0.339 ± 0.13 |
| GUGUCUUUUGCUCUGCAGUCA | 0.568 ± 0.32 | 0.168 ± 0.045 |
| GUGUGUGGAAAUGCUUCUGC | 0.447 ± 0.27 | -1.04 ± 0.03 |
| UAAACGUGGAUGUACUUGCUUU | -0.000139 ± 0.48 | 0.83 ± 0.16 |
| UAACACUGUCUGGUAAAGAUGG | 0.999 ± 0.35 | 1.415 ± 0.012 |
| UAACAGUCUCCAGUCACGGCC | -0.0296 ± 0.44 | -0.939 ± 0.1 |

| Sequence | NF-kB luciferase reporter activity (TNF 0 ng/mL) | NF-kB luciferase reporter activity (TNF 40 ng/mL) |
| --- | --- | --- |
| UAAGGCACCCUUCUGAGUAGA | -1.29 ± 0.15 | -3.27 ± 0.24 |
| UAAGUGCUUCCAUGUUUGAGUGU | -1.48 ± 0.11 | -0.618 ± 0.12 |
| UAAGUGCUUCCAUGUUUUGGUGA | -1.29 ± 0.15 | -0.801 ± 0.13 |
| UAAUACUGCCGGGUAAUGAUGG | 0.0214 ± 0.44 | 1.06 ± 0.17 |
| UAAUACUGCCUGGUAAUGAUGAC | 0.744 ± 0.84 | 1.37 ± 0.22 |
| UAAUACUGUCUGGUAAAACCGU | -0.175 ± 0.95 | 0.65 ± 0.15 |
| UACAGUAUAGAUGAUGUACUAG | 0.343 ± 0.35 | 0.659 ± 0.17 |
| UACUCAGGAGAGUGGCAAUCACA | 1.06 ± 0.93 | -0.306 ± 0.029 |
| UAGCACCAUCUGAAAUCGGUU | 0.81 ± 0.93 | -2.2 ± 0.16 |
| UAGCAGCGGGAACAGUUCUGCAG | 0.878 ± 0.18 | 0.834 ± 0.021 |
| UAGGCAGUGUCAUUAGCUGAUUG | 2.71 ± 0.93 | -1.42 ± 0.053 |
| UAGGUAGUUUCCUGUUGUUGG | -1.2 ± 0.5 | -0.972 ± 0.18 |
| UAUACAAGGGCAAGCUCUCUGU | -1.38 ± 0.64 | -1.11 ± 0.035 |
| UAUGGCUUUUCAUUCCUAUGUG | -0.314 ± 0.58 | -0.369 ± 0.0092 |
| UAUGUAAUAUGGUCCACAUCUU | -1.06 ± 0.48 | -1.342 ± 0.0044 |
| UAUGUGCCUUUGGACUACAUCG | -0.472 ± 0.26 | -1.23 ± 0.037 |
| UAUGUGGGAUGGUAAACCGCUU | 0.166 ± 0.72 | -1.21 ± 0.026 |
| UCAAGAGCAAUAACGAAAAAUGU | 0.225 ± 0.32 | 1.08 ± 0.015 |
| UCACAGUGAACCGGUCUCUUUC | -1.06 ± 0.48 | 0.0486 ± 0.083 |
| UCACUCCUCUCCUCCCGUCUUCU | 2.53 ± 0.2 | 1.87 ± 0.1 |
| UCAGGCUCAGUCCCCUCCCGAU | -0.315 ± 0.14 | -0.227 ± 0.1 |
| UCAGUCUCAUCUGCAAAGAAG | 2.97 ± 0.59 | 1.58 ± 0.083 |

| Sequence | NF-kB luciferase reporter activity (TNF 0 ng/mL) | NF-kB luciferase reporter activity (TNF 40 ng/mL) |
| --- | --- | --- |
| UCAGUGCAUCACAGAACUUUGU | 0.225 ± 0.32 | 0.0758 ± 0.04 |
| UCAGUGCAUGACAGAACUUGGG | -0.378 ± 0.05 | 0.0929 ± 0.021 |
| UCCAGCAUCAGUGAUUUUGUUGA | 0.425 ± 0.23 | 0.858 ± 0.14 |
| UCCAGCUCCUAUAUGAUGCCUUU | 3.61 ± 0.75 | -0.188 ± 0.11 |
| UCCCUGAGACCCUUUAACCUGUG | 0.417 ± 0.12 | 1.32 ± 0.15 |
| UCCCUGUCCUCCAGGAGCUCA | 0.322 ± 0.46 | 0.69 ± 0.39 |
| UCCGUCUCAGUUACUUUAUAGCC | 0.757 ± 0.51 | 0.334 ± 0.055 |
| UCCUGUACUGAGCUGCCCCGAG | 0.874 ± 0.074 | 1.15 ± 0.17 |
| UCGGGGAUCAUCAUGUCACGAG | 1.13 ± 0.071 | 0.339 ± 0.01 |
| UCGUGCAUCCCUUUAGAGUGUU | 1.73 ± 0.3 | 1.07 ± 0.079 |
| UCUACAAAGGGAAGCCCUUUCUG | -0.631 ± 0.31 | 0.879 ± 0.11 |
| UCUACAGUGCACGUGUCU | -1.16 ± 0.34 | -0.417 ± 0.031 |
| UCUCACACAGAAAUCGCACCCGUC | 0.103 ± 1.2 | 0.598 ± 0.025 |
| UCUCCCAACCCUUGUACCAGUG | 0.0398 ± 0.056 | 1.18 ± 0.046 |
| UCUCUGGAGGGAAGCACUUUCUG | -0.463 ± 0.65 | -0.521 ± 0.11 |
| UCUGCAAAGGGAAGCCCUUU | 0.625 ± 1.3 | 0.788 ± 0.045 |
| UCUGGCUCCGUGUCUUCACUCC | 0.957 ± 0.014 | -1.34 ± 0.046 |
| UCUUGGAGUAGGUCAUUGGGUGG | 1.37 ± 0.57 | 0.913 ± 0.027 |
| UGAAACAUACACGGGAAACCUCUU | 0.49 ± 0.56 | -0.403 ± 0.11 |
| UGAAGGUCUACUGUGUGCCAG | -0.779 ± 1.1 | -1.55 ± 0.32 |
| UGAGAACUGAAUUCCAUAGGCU | -1.29 ± 0.15 | 0.439 ± 0.12 |
| UGAGGUAGGAGGUUGUAUAGU | -0.314 ± 0.58 | -0.881 ± 0.37 |
